Reference: ChEMBL document CHEMBL1201862, “PubChem BioAssay data set” (2004)
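All cell lines were grown in 96-well plates and treated with compound for 48 hours. GI50 = concentration required for 50% inhibition of growth.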 Calls of active or inactive are those of the source. Rule as the data show it: active = GI50 up to about 1.1 µM and inactive = higher.

Key:
Experiment in all cases: DTP human tumour cell line panel, 48 h
DU-145 = system: DU-145
HCC 2998 = system: HCC 2998
HCT-15 = system: HCT-15
HOP-62 = system: HOP-62
K562 = system: K562
MDA-MB-231 = system: MDA-MB-231
MDA-MB-435 = system: MDA-MB-435
NCI-H460 = system: NCI-H460
NCI/ADR-RES = system: NCI/ADR-RES
SF-268 = system: SF-268
SF-295 = system: SF-295
SK-MEL-28 = system: SK-MEL-28
SN12C = system: SN12C
SNB-19 = system: SNB-19
SR = system: SR
SW-620 = system: SW-620
A549 = system: A549
CAKI-1 = system: CAKI-1
NCI-H522 = system: NCI-H522
BT-549 = system: BT-549

Structure (SMILES) | GI50 (DU-145) | GI50 (HCC 2998) | GI50 (HCT-15) [µM] | GI50 (HOP-62) | GI50 (K562) | GI50 (MDA-MB-231) | GI50 (MDA-MB-435) | GI50 (NCI-H460) | GI50 (NCI/ADR-RES) | GI50 (SF-268) | GI50 (SF-295) | GI50 (SK-MEL-28) | GI50 (SN12C) | GI50 (SNB-19) | GI50 (SR) | GI50 (SW-620) | GI50 (A549) | GI50 (CAKI-1) | GI50 (NCI-H522) | GI50 (BT-549)
CCCCN(CCCC)CC(O)c1cc(-c2ccc(Cl)c(Cl)c2)nc2c(Cl)cc(Cl)cc12 (stereo unspecified) | > 100 µM (inactive) | 16.2 µM (inactive) | 45.1 | 66.5 µM (inactive) | > 10 µM (inactive) | 7.64 µM (inactive) | > 100 µM (inactive) | > 100 µM (inactive) | > 100 µM (inactive) | 39.7 µM (inactive) | > 100 µM (inactive) | > 100 µM (inactive) | 47.4 µM (inactive) | > 100 µM (inactive) | 42.6 µM (inactive) | 15.6 µM (inactive) | – | – | – | –
O=C(N/C(=C\c1cccc([N+](=O)[O-])c1)c1nc2ccccc2[nH]1)c1ccccc1 | – | 94.4 µM (inactive) | 26.1 | 42.8 µM (inactive) | 50.5 µM (inactive) | – | – | 87.1 µM (inactive) | – | 45.3 µM (inactive) | – | 18.3 µM (inactive) | 68.7 µM (inactive) | 61.2 µM (inactive) | 37.3 µM (inactive) | > 100 µM (inactive) | 35.2 µM (inactive) | 59.4 µM (inactive) | 36.8 µM (inactive) | –
CC(=O)OC12c3ccccc3C1CCCCCC21OCCCO1 (stereo unspecified) | – | > 100 µM (inactive) | > 100 | > 100 µM (inactive) | > 100 µM (inactive) | – | – | > 100 µM (inactive) | – | > 100 µM (inactive) | > 100 µM (inactive) | > 100 µM (inactive) | > 100 µM (inactive) | > 100 µM (inactive) | > 100 µM (inactive) | – | > 100 µM (inactive) | > 100 µM (inactive) | > 100 µM (inactive) | –
c1ccc(CNCCN2CCNCC2)nc1 | – | – | > 100 | > 100 µM (inactive) | > 100 µM (inactive) | > 100 µM (inactive) | > 100 µM (inactive) | > 100 µM (inactive) | > 100 µM (inactive) | > 100 µM (inactive) | > 100 µM (inactive) | > 100 µM (inactive) | > 100 µM (inactive) | > 100 µM (inactive) | > 100 µM (inactive) | > 100 µM (inactive) | > 100 µM (inactive) | > 100 µM (inactive) | > 100 µM (inactive) | > 100 µM (inactive)
CC(C)CCc1c(Cl)nc(Cl)nc1Cl | 17.3 µM (inactive) | 16.5 µM (inactive) | 3.47 | 16.4 µM (inactive) | 3.41 µM (inactive) | – | 6.18 µM (inactive) | 15.5 µM (inactive) | 28.2 µM (inactive) | 17.6 µM (inactive) | 18.1 µM (inactive) | 9.04 µM (inactive) | 10.7 µM (inactive) | 22 µM (inactive) | – | 1.4 µM (inactive) | 21.7 µM (inactive) | – | 2.71 µM (inactive) | 4.1 µM (inactive)
CC[C@H](C)C1=C(OC(C)=O)[N@+]2([O-])Oc3ccc(-c4c(OC(C)=O)c(OC(C)=O)c(-c5ccc(OC(C)=O)cc5)c(OC(C)=O)c4OC(C)=O)cc3O[C@]2([C@@H](C)CC)C(=O)N1OC(C)=O | 16.6 µM (inactive) | 0.00766 µM (active) | 15.5 | – | 14.5 µM (inactive) | 23.9 µM (inactive) | 16 µM (inactive) | 20 µM (inactive) | 17.9 µM (inactive) | 14.7 µM (inactive) | 9.25 µM (inactive) | 12.2 µM (inactive) | 17.9 µM (inactive) | 13.7 µM (inactive) | 12.6 µM (inactive) | 13 µM (inactive) | 12.7 µM (inactive) | 20 µM (inactive) | 8.05 µM (inactive) | –
CN/N=C(/C=C/c1ccccc1)C(C)C | > 100 µM (inactive) | > 100 µM (inactive) | > 100 | > 100 µM (inactive) | > 100 µM (inactive) | – | > 100 µM (inactive) | > 10 µM (inactive) | > 100 µM (inactive) | > 100 µM (inactive) | > 100 µM (inactive) | > 100 µM (inactive) | > 100 µM (inactive) | > 100 µM (inactive) | > 100 µM (inactive) | > 100 µM (inactive) | > 100 µM (inactive) | > 100 µM (inactive) | 73.3 µM (inactive) | > 100 µM (inactive)
CCOC(=O)CCC(C(=O)OCC)n1nnc2cc(Nc3c(C)[n+]([O-])c4ccc(Cl)cc4[n+]3[O-])ccc21 (stereo unspecified) | > 100 µM (inactive) | – | 53.7 | > 100 µM (inactive) | 69.3 µM (inactive) | – | > 100 µM (inactive) | 39.1 µM (inactive) | 47.1 µM (inactive) | 34.8 µM (inactive) | 78 µM (inactive) | – | 80.4 µM (inactive) | > 100 µM (inactive) | 48.6 µM (inactive) | > 100 µM (inactive) | > 100 µM (inactive) | 57 µM (inactive) | > 100 µM (inactive) | > 100 µM (inactive)
COc1ccc(Oc2nc3c(N)cc(C(F)(F)F)cc3nc2-c2ccccc2)cc1 | – | 38.8 µM (inactive) | 31.6 | 22.8 µM (inactive) | > 100 µM (inactive) | 24.8 µM (inactive) | 46.3 µM (inactive) | 21.8 µM (inactive) | 27.2 µM (inactive) | 20.6 µM (inactive) | 18.5 µM (inactive) | 85.9 µM (inactive) | – | 36.1 µM (inactive) | 19.9 µM (inactive) | 58.1 µM (inactive) | – | 21.8 µM (inactive) | – | 47.1 µM (inactive)
CN(C)C(=O)NC(=S)N(C)C | – | > 100 µM (inactive) | 17.1 | 0.294 µM (active) | > 100 µM (inactive) | – | – | > 100 µM (inactive) | – | > 100 µM (inactive) | > 100 µM (inactive) | > 100 µM (inactive) | > 100 µM (inactive) | > 100 µM (inactive) | > 100 µM (inactive) | > 100 µM (inactive) | > 100 µM (inactive) | > 100 µM (inactive) | > 100 µM (inactive) | –
NNC(=O)COc1nc(-c2cccs2)nc2ccc(I)cc12 | 21.7 µM (inactive) | 20 µM (inactive) | 20.7 | 27.3 µM (inactive) | – | – | 20.1 µM (inactive) | 21.8 µM (inactive) | 28.1 µM (inactive) | 20.8 µM (inactive) | 28.8 µM (inactive) | 24.8 µM (inactive) | 23.1 µM (inactive) | 13.4 µM (inactive) | 15.8 µM (inactive) | 34.5 µM (inactive) | 18.7 µM (inactive) | 17.6 µM (inactive) | 18.7 µM (inactive) | 15.3 µM (inactive)
CCOc1ccc2[nH]c3c(C)c4ccncc4c(C)c3c2c1 | – | 1.42 µM (inactive) | 0.448 | 1.08 µM (active) | 0.377 µM (active) | – | – | 0.451 µM (active) | – | 1.18 µM (inactive) | 1.02 µM (active) | 1.91 µM (inactive) | 0.564 µM (active) | 1.45 µM (inactive) | 0.37 µM (active) | 0.466 µM (active) | 1.45 µM (inactive) | 1.69 µM (inactive) | 1.45 µM (inactive) | –
CC1SCc2nc3ccccc3n21 (stereo unspecified) | > 100 µM (inactive) | > 100 µM (inactive) | > 100 | > 100 µM (inactive) | > 100 µM (inactive) | > 100 µM (inactive) | > 100 µM (inactive) | > 100 µM (inactive) | > 100 µM (inactive) | > 100 µM (inactive) | > 100 µM (inactive) | > 100 µM (inactive) | > 100 µM (inactive) | > 100 µM (inactive) | – | – | > 100 µM (inactive) | > 100 µM (inactive) | > 100 µM (inactive) | –
CCOc1cc(NC(C)=O)ccc1C(=O)NN1C(=O)/C(=C/c2ccco2)N=C1c1ccccc1 | > 100 µM (inactive) | > 100 µM (inactive) | > 100 | > 100 µM (inactive) | 26.8 µM (inactive) | – | > 100 µM (inactive) | > 100 µM (inactive) | > 100 µM (inactive) | > 100 µM (inactive) | > 100 µM (inactive) | > 100 µM (inactive) | > 100 µM (inactive) | > 100 µM (inactive) | 41.5 µM (inactive) | > 100 µM (inactive) | > 100 µM (inactive) | > 100 µM (inactive) | 24.9 µM (inactive) | > 100 µM (inactive)
CC(=O)N(O)c1ccc(-c2nc3ccccc3s2)cc1 | > 100 µM (inactive) | 61.9 µM (inactive) | > 100 | 42.1 µM (inactive) | > 100 µM (inactive) | 49.7 µM (inactive) | 86.9 µM (inactive) | 46.9 µM (inactive) | 28.4 µM (inactive) | 74.6 µM (inactive) | 45.2 µM (inactive) | 80.7 µM (inactive) | > 100 µM (inactive) | 60 µM (inactive) | > 100 µM (inactive) | > 100 µM (inactive) | 42.6 µM (inactive) | 95.1 µM (inactive) | 24.5 µM (inactive) | –
Cc1nccc2c1cnc1ccnn12 | – | > 100 µM (inactive) | > 100 | > 100 µM (inactive) | > 100 µM (inactive) | – | – | > 100 µM (inactive) | – | > 100 µM (inactive) | – | > 100 µM (inactive) | > 100 µM (inactive) | > 100 µM (inactive) | > 100 µM (inactive) | > 100 µM (inactive) | > 100 µM (inactive) | > 100 µM (inactive) | > 100 µM (inactive) | –
CNC(=S)NC1CCCCC1NC(=S)NC (stereo unspecified) | – | > 100 µM (inactive) | > 100 | > 100 µM (inactive) | > 100 µM (inactive) | – | – | > 100 µM (inactive) | – | > 100 µM (inactive) | > 100 µM (inactive) | > 100 µM (inactive) | > 100 µM (inactive) | > 100 µM (inactive) | > 100 µM (inactive) | > 100 µM (inactive) | > 100 µM (inactive) | > 100 µM (inactive) | > 100 µM (inactive) | –
